The record followed here is ChEMBL document CHEMBL4428104, “Synthesis and antibacterial evaluation of hamacanthin B analogues” (2016).

Values after ≈ are worked out from the molar mass of the structure shown.

As usually defined, the MIC is the lowest concentration that inhibits growth of the organism. A higher MIC goes with weaker potency.

Holding throughout (format): functional
The subject of one assay is Enterococcus faecalis. The assay is described as follows: Antibacterial activity against multidrug resistant Enterococcus faecalis 5210 after 24 hrs by two fold serial dilution method.
Assay [1] relates to Staphylococcus aureus. The assay is described as follows: Antibacterial activity against methicillin resistant Staphylococcus aureus 3089 after 24 hrs by two fold serial dilution method. To be noted: Staphylococcus aureus, 3089, 24 h.
A further assay relates to Escherichia coli. Nature of the assay: Antibacterial activity against multidrug resistant Escherichia coli 1137 after 24 hrs by two fold serial dilution method.
In assay [2] the test system is Staphylococcus aureus. Nature of the assay: Antibacterial activity against Staphylococcus aureus SG 511 after 24 hrs by two fold serial dilution method. To be noted: SG 511, 24 h.
[3] abbreviates: Enterococcus faecalis, 5210, 24 h.

`O=C(NCC(=O)c1c[nH]c2ccccc12)C(=O)c1c[nH]c2cc(Br)ccc12`: the MIC is greater than 40 µg/mL with Enterococcus faecalis (setting [3]); greater than 40 µg/mL with Staphylococcus aureus [1]; greater than 40 µg/mL with Escherichia coli (Escherichia coli, 1137, 24 h); greater than 40 µg/mL in the assay with Staphylococcus aureus [2].
In the case of `O=C1NC[C@@H](c2c[nH]c3cc(Br)ccc23)N[C@H]1c1c[nH]c2cc(Br)ccc12` [CIS-3,4-DIHYDROHAMACANTHIN B], the minimal inhibitory concentration (MIC) against Enterococcus faecalis (setting [3]) is 40 µg/mL (≈ 81.9 µM); in the assay with Staphylococcus aureus [1], 20 µg/mL (≈ 41 µM); against Escherichia coli (Escherichia coli, 1137, 24 h) it was greater than 40 µg/mL; in the assay on Staphylococcus aureus [2] it was 10 µg/mL (≈ 20.5 µM).
As to GENTAMICIN, the MIC in the assay on Enterococcus faecalis and against Escherichia coli was greater than 40 µg/mL each time.
Turning to `CN[C@H](CC(C)C)C(=O)N[C@H]1C(=O)N[C@@H](CC(N)=O)C(=O)N[C@H]2C(=O)N[C@H]3C(=O)N[C@H](C(=O)N[C@H](C(=O)O)c4cc(O)cc(O)c4-c4cc3ccc4O)[C@H](O)c3ccc(c(Cl)c3)Oc3cc2cc(c3O[C@@H]2O[C@H](CO)[C@@H](O)[C@H](O)[C@H]2O[C@H]2C[C@](C)(N)[C@H](O)[C@H](C)O2)Oc2ccc(cc2Cl)[C@H]1O` [VANCOMYCIN], the MIC against Enterococcus faecalis (setting [3]) came to 2.5 µg/mL (≈ 1.73 µM); in the assay with Staphylococcus aureus [1], 1.25 µg/mL (≈ 0.863 µM).
Take `O=c1[nH]cc(-c2c[nH]c3cc(Br)ccc23)nc1-c1c[nH]c2cc(Br)ccc12`: the minimal inhibitory concentration (MIC) in the assay with Enterococcus faecalis (setting [3]) is 20 µg/mL (≈ 41.3 µM); against Staphylococcus aureus [1] it was 20 µg/mL (≈ 41.3 µM); against Escherichia coli (Escherichia coli, 1137, 24 h), greater than 40 µg/mL; against Staphylococcus aureus [2], 10 µg/mL (≈ 20.7 µM).
`CN(C)[C@@H]1C(O)=C(C(N)=O)C(=O)[C@@]2(O)C(O)=C3C(=O)c4c(O)cccc4[C@@](C)(O)[C@H]3C[C@@H]12` [TETRACYCLINE] came in with an MIC in the assay with Staphylococcus aureus [2] of 0.16 µg/mL (≈ 0.36 µM).
`O=C1NC[C@H](c2c[nH]c3cc(Br)ccc23)N[C@@H]1c1c[nH]c2cc(Br)ccc12`: the MIC with Enterococcus faecalis (setting [3]) is greater than 40 µg/mL; against Staphylococcus aureus [1], 40 µg/mL (≈ 81.9 µM); in the assay with Escherichia coli (Escherichia coli, 1137, 24 h) it was greater than 40 µg/mL; against Staphylococcus aureus [2] it was 20 µg/mL (≈ 41 µM).
`O=c1[nH]cc(-c2c[nH]c3ccccc23)nc1-c1c[nH]c2cc(Br)ccc12`: the MIC against Enterococcus faecalis (setting [3]) is greater than 40 µg/mL; in the assay with Staphylococcus aureus [1], 20 µg/mL (≈ 49.4 µM); in the assay with Escherichia coli (Escherichia coli, 1137, 24 h), greater than 40 µg/mL; against Staphylococcus aureus [2] it was 2.5 µg/mL (≈ 6.17 µM).
`O=C(NCC(=O)c1c[nH]c2cc(Br)ccc12)C(=O)c1c[nH]c2cc(Br)ccc12`: the minimum inhibitory concentration (MIC) against Enterococcus faecalis (setting [3]) was greater than 40 µg/mL; in the assay on Staphylococcus aureus [1], greater than 40 µg/mL; in the assay on Escherichia coli (Escherichia coli, 1137, 24 h) it was greater than 40 µg/mL; against Staphylococcus aureus [2], greater than 40 µg/mL.
Take `O=C1NC[C@@H](c2c[nH]c3ccccc23)N[C@H]1c1c[nH]c2cc(Br)ccc12`: the MIC is greater than 40 µg/mL against Enterococcus faecalis (setting [3]); greater than 40 µg/mL with Staphylococcus aureus [1]; greater than 40 µg/mL in the assay on Escherichia coli (Escherichia coli, 1137, 24 h); 40 µg/mL (≈ 97.7 µM) with Staphylococcus aureus [2].
For the molecule `CCn1cc(C(=O)O)c(=O)c2cc(F)c(N3CCNCC3)cc21` [NORFLOXACIN], the MIC was greater than 40 µg/mL in the assay on Staphylococcus aureus [1] and 1.25 µg/mL (≈ 3.91 µM) against Escherichia coli (Escherichia coli, 1137, 24 h).
Regarding `O=C1NC[C@H](c2c[nH]c3ccccc23)N[C@@H]1c1c[nH]c2cc(Br)ccc12`, the MIC was greater than 40 µg/mL in the assay on Enterococcus faecalis (setting [3]); greater than 40 µg/mL in the assay with Staphylococcus aureus [1]; greater than 40 µg/mL against Escherichia coli (Escherichia coli, 1137, 24 h); 20 µg/mL (≈ 48.9 µM) in the assay with Staphylococcus aureus [2].
